Data on 18 molecules can be found in patent publication US7713994B2 (Wyeth LLC, priority 2005, dated 2010).

One data set relates to BT474. The data set is described as follows: Cytotoxicity assay (SRB), BT474. It counts as cell-based. The method, boiled down:
(§1)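 Cells seeded overnight at 37 °C, 7% CO2 (BT474 12000, HCT-116 4000, LoVo and MCF-7 6000 cells/well) in RPMI 1640 with 5% FBS, then exposed to compound dilutions for 3 days (BT474 6 days). Survival versus untreated controls by TCA fixation and SRB staining, absorbance 540 nm.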

The next data set deals with T1, cyclin B/CDK1 enzyme (Homo sapiens, UniProt P06493).
T1 construct: purchased New England BioLabs; host or cells: Sf9 insect cells, recombinant baculovirus
The experiment in a line: CDK1 ELISA kinase assay (phospho-Rb ser 795 detection). It counts as biochemical. The settings on record: In Vitro Enzyme Assays, read-out: CDK1 IC50. In short, it runs like this: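 ELISA format: plate-bound GST-Rb, 200 μM ATP, Sf9 cyclin/CDK enzyme, 1 h at 30° C; then anti-pRb Ser795 primary overnight at 4° C, HRP secondary, TMB. IC50 after no-substrate background subtraction.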
For orientation: In an ELISA, binding on a coated surface is turned into a signal by an enzyme label.

The test system of the next data set is LoVo. The experiment in a line: Cytotoxicity assay (SRB), LoVo. It counts as cell-based. The settings on record: Homo sapiens, LoVo, 72 h, LoVo cells, SRB, read-out: In Vitro Cellular Activity IC50 LOVO. The method, boiled down:
as §1

The test system of the next data set is HCT-116. The experiment in a line: Cytotoxicity assay (SRB), HCT-116. It counts as cell-based. The settings on record: Homo sapiens, HCT-116, 72 h, HCT116 cells, SRB, read-out: In Vitro Cellular Activity IC50 HCT116. The method, boiled down: as §1
A further data set relates to MCF-7. The experiment in a line: Cytotoxicity assay (SRB), MCF-7. It counts as cell-based. To be noted: Homo sapiens, MCF7, 72 h, MCF-7 cells, SRB, read-out: In Vitro Cellular Activity IC50 MCF-7. The method, boiled down: as §1
The mark [1] stands for this setting: Homo sapiens, BT-474, 144 h, BT474 cells, SRB, 6 days; read-out: In Vitro Cellular Activity IC50 BT474.
Where [2] appears, read: Homo sapiens, BT-474, 144 h, BT474 cells, 6 days, SRB; read-out: In Vitro Cellular Activity IC50 BT474.

Each structure is given as a SMILES string. Where two headings read alike, the source gives them in different places. Where only a bound is given, the exact number is not on record here.

T1 sequence (P06493 whole entry): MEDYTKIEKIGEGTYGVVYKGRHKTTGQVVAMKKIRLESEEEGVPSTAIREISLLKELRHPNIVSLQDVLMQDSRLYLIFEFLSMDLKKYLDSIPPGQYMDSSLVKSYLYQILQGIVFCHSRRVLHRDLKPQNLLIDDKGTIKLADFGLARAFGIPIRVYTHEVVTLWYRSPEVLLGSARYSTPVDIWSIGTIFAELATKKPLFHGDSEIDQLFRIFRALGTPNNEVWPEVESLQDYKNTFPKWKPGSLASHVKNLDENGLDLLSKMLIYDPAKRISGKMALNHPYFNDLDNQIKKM
T1 sequence (P14635 whole entry partner): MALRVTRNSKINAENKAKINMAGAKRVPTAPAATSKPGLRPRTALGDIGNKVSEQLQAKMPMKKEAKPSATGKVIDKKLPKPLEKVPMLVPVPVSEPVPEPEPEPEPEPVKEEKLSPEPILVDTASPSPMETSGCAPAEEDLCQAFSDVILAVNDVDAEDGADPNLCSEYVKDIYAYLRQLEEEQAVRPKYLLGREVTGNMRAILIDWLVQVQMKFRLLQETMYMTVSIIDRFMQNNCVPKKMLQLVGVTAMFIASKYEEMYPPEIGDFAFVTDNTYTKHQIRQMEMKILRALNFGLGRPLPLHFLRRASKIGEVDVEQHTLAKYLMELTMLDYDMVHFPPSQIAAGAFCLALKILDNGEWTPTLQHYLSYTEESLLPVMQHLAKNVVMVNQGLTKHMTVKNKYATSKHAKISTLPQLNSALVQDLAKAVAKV

On to `O=C1NC(=O)c2ccc(-c3ccccc3)cc2/C1=C/Nc1ccc(CN2CCCCC2)cc1` [Example 95], for which the melting point (commonly the temperature, or range, at which the solid turns liquid) lay within 214 to 215 °C. Also, in the data set with BT474 (setting [1]), the IC50 (usually the midpoint of a concentration-inhibition curve) came to 3 µM. Also, on cyclin B/CDK1 enzyme, the IC50 is more than 50 µM. In the data set on LoVo (three days), the IC50 was 3.7 µM.

`CCOC(=O)C1(C(=O)OCC)Oc2ccc(CN/C=C3\C(=O)NC(=O)c4ccc(Br)cc43)cc2O1` [Example 179, (Z)-Diethyl 5-(((6-bromo-1,3-dioxo-2,3-dihydroisoquinolin-4(1H)-ylidene)methylamino)methyl)benzo[d][1,3]dioxole-2,2-dicarboxylate] gave a melting point of 222 to 223 °C. The IC50 with HCT-116 (three days) worked out at 34 µM. For the same molecule, in the data set on BT474 (setting [1]), the IC50 was 17 µM. Moreover, in the data set with MCF-7 (three days), the IC50 is 30 µM. Moreover, in the data set on LoVo (three days), the IC50 is 20 µM.

Molecule `O=C1NC(=O)c2ccc(Br)cc2/C1=C/NCc1ccc(NC(=O)C2CC2)c(OC(=O)C2CC2)c1` [Example 185, 5-({[(Z)-(6-Bromo-1,3-dioxo-2,3-dihydroisoquinolin-4(1H)-′cyclopropanecarboxylate ′ylidene)methyl]amino}methyl)-2-[(cyclopropylcarbonyl)amino]phenyl] gave a melting point of 245 to 246 °C. Further, the IC50 with HCT-116 (three days) came to 2.8 µM. For the same molecule, the IC50 in the data set on BT474 (setting [1]) came out at 0.87 µM. The IC50 with MCF-7 (three days) was more than 50 µM. Moreover, the IC50 in the data set with LoVo (three days) was determined as 2.7 µM.

With `CCCOc1ccc(CN/C=C2\C(=O)NC(=O)c3ccc(Br)cc32)cc1OC(=O)CC` [Example 190, 5-({[(Z)-(6-Bromo-1,3-dioxo-2,3-dihydroisoquinolin-4(1H)-ylidene)methyl]amino}-methyl)-2-propoxyphenyl propionate], the melting point was 206 to 207 °C. Moreover, the half-maximal inhibitory concentration (IC50) with HCT-116 (three days) was 9.4 µM. In addition, in the data set with BT474 (setting [1]), the IC50 came out at 1.4 µM. Further, the IC50 with MCF-7 (three days) is more than 50 µM. For the same molecule, the IC50 in the data set on LoVo (three days) stood at 13 µM.

With `CCCOc1ccc(CN/C=C2\C(=O)NC(=O)c3ccc(Br)cc32)cc1OC(=O)OC` [Example 191, 5-({[(Z)-(6-Bromo-1,3-dioxo-2,3-dihydroisoquinolin-4(1H)-ylidene)methyl]amino}-methyl)-2-propoxyphenyl methyl carbonate], the melting point was 211 to 212 °C. Also, the IC50 in the data set on HCT-116 (three days) was 35 µM. Moreover, the IC50 in the data set on BT474 (setting [1]) was determined as 5.7 µM. Besides, in the data set with MCF-7 (three days), the IC50 was more than 50 µM. Further, the IC50 with LoVo (three days) is more than 50 µM.

In the case of `CN1CCN(C(=O)Nc2ccc(N/C=C3\C(=O)NC(=O)c4ccc(Br)cc43)cc2)CC1` [Example 215, N-(4-{[(Z)-(6-Bromo-1,3-dioxo-2,3-dihydroisoquinolin-4(1H)-′ylidene)methyl]amino}phenyl)-4-methylpiperazine-1-carboxamide], the melting point is more than 300 °C. Moreover, the IC50 with HCT-116 (three days) is 4.5 µM. In the data set with BT474 (setting [1]), the IC50 was determined as 7.4 µM. For the same molecule, the IC50 in the data set on MCF-7 (three days) is 7.1 µM. Further, the IC50 with LoVo (three days) came to 6.4 µM.

`COc1cc2c(cc1Br)/C(=C/Nc1ccc(N3CCN(C)CC3)cc1)C(=O)NC2=O` [Example 242, 6-Bromo-7-methoxy-4-{[4-(4-methyl-piperazin-1-yl)-phenylamino]-methylene}-4H-isoquinoline-1,3-dione] yielded a melting point of 274 to 276 °C. Moreover, in the data set on HCT-116 (three days), the IC50 worked out at 2.1 µM. Besides, the IC50 in the data set on BT474 (setting [1]) is 3.2 µM. The IC50 in the data set on MCF-7 (three days) was 5.2 µM. For the same molecule, the IC50 in the data set with LoVo (three days) came to 4.5 µM.

As to `O=C1NC(=O)c2ccc(I)cc2/C1=C/Nc1ccc(OCc2ccccn2)cc1` [Example 247], the melting point lay in the range of 265 to 266 °C. Also, the IC50 in the data set with HCT-116 (three days) was 18 µM. In addition, the IC50 with BT474 (setting [1]) came out at 35 µM. For the same molecule, the IC50 with MCF-7 (three days) was more than 50 µM. In the data set on LoVo (three days), the IC50 is more than 50 µM.

The molecule `COc1cc2c(cc1Br)/C(=C/Nc1ccc(CN3CCCCC3)cc1)C(=O)NC2=O` [Example 252, 6-Bromo-7-methoxy-4-[(4-piperidin-1-ylmethyl-phenylamino)-methylene]-4H-isoquinoline-1,3-dione] returned a melting point of 264 to 267 °C. In addition, the IC50 in the data set on HCT-116 (three days) worked out at 14 µM. In the data set on BT474 (setting [1]), the IC50 was determined as 15 µM. Moreover, in the data set with MCF-7 (three days), the IC50 stood at 33 µM. Also, the IC50 in the data set on LoVo (three days) was 21 µM.

Turning to `O=C1NC(=O)c2ccc(Br)cc2/C1=C/Nc1ccc(CN2CCSC2)cc1` [Example 281, (4Z)-6-Bromo-4-({[4-(1,3-thiazolidin-3-ylmethyl)phenyl]amino}methylene)isoquinoline-1,3(2H,4H)-dione], the melting point was in the range of 224 to 225 °C. Moreover, the IC50 in the data set on HCT-116 (three days) came out at 20 µM. For the same molecule, the IC50 in the data set with BT474 (setting [1]) came out at 44.3 µM. Moreover, the 50% inhibitory concentration (IC50) in the data set on MCF-7 (three days) turned out to be 19 µM. Further, the 50% inhibitory concentration (IC50) in the data set with LoVo (three days) came out at 12 µM.

`COC[C@H]1CCCN1Cc1ccc(N/C=C2\C(=O)NC(=O)c3ccc(-c4ccc(OC(C)C)cc4)cc32)cc1` [Example 300, (4Z)-6-(4-Isopropoxyphenyl)-4-{[(4-{[(2R)-2-(methoxymethyl)pyrrolidin-1-yl]methyl}phenyl)amino]methylene}isoquinoline-1,3(2H,4H)-dione]: the melting point lay within 200 to 201 °C. For the same molecule, the concentration for half-maximal inhibition (IC50) in the data set with HCT-116 (three days) was determined as 3.1 µM. Besides, the IC50 in the data set on BT474 (setting [1]) worked out at 17 µM. The IC50 with MCF-7 (three days) worked out at 8.7 µM. Besides, in the data set on LoVo (three days), the IC50 is 26 µM.

Turning to `O=C1NC(=O)c2ccc(Br)cc2C1=CNCc1cc(=O)c(O)co1` [Example 313, 6-Bromo-4-{[(5-hydroxy-4-oxo-4H-pyran-2-ylmethyl)-amino]-methylene}-4H-isoquinoline-1,3-dione], the melting point is 293 to 297 °C (dec.). Further, the IC50 in the data set with HCT-116 (three days) was found to be 27 µM. In addition, the half-inhibitory concentration (IC50) in the data set with BT474 (setting [1]) was 43 µM. The IC50 with MCF-7 (three days) is 22 µM. Moreover, in the data set with LoVo (three days), the IC50 amounted to 41 µM.

As to `C[C@@H]1CN(c2ccc(N/C=C3\C(=O)NC(=O)c4ccc(Br)cc43)cc2F)C[C@H](C)N1` [Example 318, (4Z)-6-Bromo-4-[({4-[(3R,5S)-3,5-dimethylpiperazin-1-yl]-3-fluorophenyl}amino)methylene]isoquinoline-1,3(2H,4H)-dione], the melting point was 168 to 169 °C. In the data set with HCT-116 (three days), the IC50 is 1.3 µM. Besides, in the data set on BT474 (setting [1]), the IC50 is 1.9 µM. Further, the IC50 in the data set on MCF-7 (three days) came out at 2.5 µM. In addition, in the data set with LoVo (three days), the half-inhibitory concentration (IC50) was determined as 1.5 µM.

`Cc1nn(-c2ccc(NC=C3C(=O)NC(=O)c4ccc(Br)cc43)cc2)c(C)c1Cl` [Example 348, 6-Bromo-4-{[4-(4-chloro-3,5-dimethyl-pyrazol-1-yl)-phenylamino]-methylene}-4H-isoquinoline-1,3-dione] gave a melting point of 290 to 291 °C. In addition, the IC50 in the data set with HCT-116 (three days) amounted to 2.6 µM. The IC50 in the data set on BT474 (setting [1]) amounted to 6.1 µM. Further, in the data set with MCF-7 (three days), the IC50 was determined as 5.1 µM. Also, the concentration for half-maximal inhibition (IC50) in the data set on LoVo (three days) is 1.8 µM.

Take `O=C1NC(=O)c2ccc(-n3cccc3)cc2/C1=C/Nc1ccc(Br)cn1` [Example 444, (Z)-4-((5-Bromopyridin-2-ylamino)methylene)-6-(1H-pyrrol-1-yl)isoquinoline-1,3(2H,4H)-dione]: the melting point was 317 to 318 °C (dec.). In addition, in the data set on HCT-116 (3 days), the IC50 was found to be 3.2 µM. In addition, the IC50 with BT474 (setting [2]) is 5.2 µM. The IC50 in the data set with MCF-7 (3 days) came out at 8.9 µM. Further, in the data set with LoVo (3 days), the IC50 is 5 µM.

The molecule `CC(C)N1CCN(c2ccc(N/C=C3\C(=O)NC(=O)c4ccc(Br)cc43)nc2)CC1` [Example 486, (4Z)-6-Bromo-4-({[5-(4-isopropylpiperazin-1-yl)pyridin-2-yl]amino}methylene)isoquinoline-1,3(2H,4H)-dione] showed a melting point of 223 to 224 °C. In the data set with HCT-116 (3 days), the IC50 was 7.49 µM. For the same molecule, the IC50 in the data set with BT474 (setting [2]) turned out to be 3.61 µM. In addition, the IC50 in the data set with MCF-7 (3 days) worked out at 10 µM. The IC50 with LoVo (3 days) was found to be 7.56 µM.

Consider `CCCOc1ccc(CN/C=C2\C(=O)NC(=O)c3ccc(I)cc32)nc1Br` [Example 493, (Z)-4-(((6-Bromo-5-propoxypyridin-2-yl)methylamino)methylene)-6-iodoisoquinoline-1,3(2H,4H)-dione], for which the melting point is 251 to 253 °C (dec.). Besides, the IC50 in the data set on HCT-116 (3 days) amounted to 4.7 µM. The IC50 in the data set on BT474 (setting [2]) is 10.9 µM. Besides, the IC50 with MCF-7 (3 days) amounted to 10.2 µM. For the same molecule, the IC50 in the data set with LoVo (3 days) is 9.4 µM.

In the case of `CCCOc1ccc(CN/C=C2\C(=O)NC(=O)c3ccc(I)cc32)nc1O` [Example 510, 4-{[(6-Hydroxy-5-propoxy-pyridin-2-ylmethyl)-amino]-methylene}-6-iodo-4H-isoquinoline-1,3-dione], the melting point was 275 to 281 °C (dec.). Moreover, in the data set on HCT-116 (3 days), the IC50 turned out to be 0.67 µM. Also, the IC50 with BT474 (setting [2]) is 0.16 µM. In addition, the half-inhibitory concentration (IC50) with MCF-7 (3 days) stood at 1.4 µM. Moreover, the IC50 in the data set on LoVo (3 days) worked out at 0.42 µM.
